Drawing on ChEMBL document CHEMBL1122778, “A mechanism for the addition of multiple moles of glutamate by folylpolyglutamate synthetase” (J Med Chem, 1984), this text covers Reaction rate and Concentration for 3 compounds.

In assay [1] the target is T1, Folylpolyglutamate synthase, mitochondrial (Mus musculus) (UniProt P48760).
T1 sequence (whole entry): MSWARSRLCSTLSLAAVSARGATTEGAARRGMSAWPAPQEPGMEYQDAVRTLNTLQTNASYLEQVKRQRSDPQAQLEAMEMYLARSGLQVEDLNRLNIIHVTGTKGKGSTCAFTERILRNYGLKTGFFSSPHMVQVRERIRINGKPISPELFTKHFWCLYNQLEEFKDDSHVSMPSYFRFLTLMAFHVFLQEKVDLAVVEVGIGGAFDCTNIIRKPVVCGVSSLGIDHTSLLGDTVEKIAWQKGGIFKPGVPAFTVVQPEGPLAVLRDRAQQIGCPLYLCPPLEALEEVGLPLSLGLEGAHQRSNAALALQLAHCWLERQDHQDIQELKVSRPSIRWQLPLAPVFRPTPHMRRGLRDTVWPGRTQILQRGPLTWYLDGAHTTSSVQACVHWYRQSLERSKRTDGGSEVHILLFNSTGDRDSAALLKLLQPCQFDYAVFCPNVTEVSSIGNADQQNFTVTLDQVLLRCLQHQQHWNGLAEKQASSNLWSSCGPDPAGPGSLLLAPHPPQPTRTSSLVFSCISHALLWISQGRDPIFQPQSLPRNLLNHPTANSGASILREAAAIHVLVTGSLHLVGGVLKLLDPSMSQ
Put plainly: Compound was evaluated for reaction rate of compound in mouse liver Folyl-polyglutamate synthase ([3H]L-glutamate incorporated).

The target of assay [2] is T1, Folylpolyglutamate synthase, mitochondrial (Mus musculus). Put plainly: Compound was evaluated for reaction rate of compound in mouse liver Folyl-polyglutamate synthase for 1 hr at a conc of 500 uM ([3H]L-glutamate incorporated).
Assay [3] shares this target. The assay is described as follows: Concentration required go get half the maximal reaction with Folyl-polyglutamate synthase.

`CN(Cc1cnc2nc(N)nc(N)c2n1)c1ccc(C(=O)NC(CCC(=O)NC(CCC(=O)O)C(=O)O)C(=O)O)cc1.CN(Cc1cnc2nc(N)nc(N)c2n1)c1ccc(C(=O)NC(CCC(=O)O)C(=O)O)cc1` (stereo not given) gave a Reaction rate in assay [1] of 1.23 nM/h.
As for `CN(Cc1cnc2nc(N)nc(N)c2n1)c1ccc(C(=O)NC(CCC(=O)NC(CCC(=O)O)C(=O)O)C(=O)O)cc1` (stereo not given), in assay [2], the Reaction rate turned out to be 0.7 nM/h. Besides, in assay [3], the Concentration came to 163 µM.
Consider `CN(Cc1cnc2nc(N)nc(N)c2n1)c1ccc(C(=O)N[C@@H](CCC(=O)O)C(=O)O)cc1`, for which the Reaction rate in assay [1] amounted to 1.71 nM/h. Besides, the Concentration in assay [3] worked out at 47 µM.
